Experimental data from article PMC5931690, “SmSP2: A serine protease secreted by the blood fluke pathogen Schistosoma mansoni with anti-hemostatic properties” (PLoS Neglected Tropical Diseases, 2018).
*1 amine or outer side, *2 acyl side, *3 side chain or, on linkers, in order; H or OH if unused. Where a SMILES comes first, the peptide text is derived from it. CO = O=C([*:1])[*:2]

Target: T1, rSmSP2 (SmSP2, serine protease 2; recombinant protease domain) (Schistosoma mansoni, UniProt V5UMR3)
T1 construct: gene SP2; about 28 kDa on SDS-PAGE, active form
T1 sequence (V5UMR3 entry or part of it): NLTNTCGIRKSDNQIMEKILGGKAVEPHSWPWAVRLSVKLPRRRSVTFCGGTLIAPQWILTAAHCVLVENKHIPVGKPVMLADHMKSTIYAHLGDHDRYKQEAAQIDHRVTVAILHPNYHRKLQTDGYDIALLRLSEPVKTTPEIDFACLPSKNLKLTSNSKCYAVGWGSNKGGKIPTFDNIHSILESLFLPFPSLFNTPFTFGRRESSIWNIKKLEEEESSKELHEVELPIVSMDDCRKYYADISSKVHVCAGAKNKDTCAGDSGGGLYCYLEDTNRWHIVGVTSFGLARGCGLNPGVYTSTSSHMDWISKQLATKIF
Experiment: fluorogenic kinetic assay, residual P-F-R-AMC hydrolysis
Type: biochemical
From the text: fluorogenic kinetic assay, residual P-F-R-AMC hydrolysis on rSmSP2 (SmSP2, serine protease 2; recombinant protease domain)

For O=c1oc(Cl)c(Cl)c2ccccc12, the inhibition at 100 µM (read-out: Inhibition (%)^c) was 71.4 ± 3.3%.
Work on CC(C)[C@H](NC(=O)[C@H](CCCNC(=N)N)NC(=O)N[C@@H](Cc1ccccc1)C(=O)O)C(=O)N[C@H](C=O)CCCNC(=N)N [Antipain] ({Phe-CO}-Arg-Val-Arg-aldehyde) yielded an inhibition at 20 µM (read-out: Inhibition (%)^c) of 100%.
For N=C(N)c1ccccc1 [Benzamidine], the inhibition at 1000 µM (read-out: Concentration) was 100%.
Work on CC(=O)N[C@@H](CC(C)C)C(=O)N[C@@H](CC(C)C)C(=O)N[C@H](C=O)CCCNC(=N)N [Leupeptin, N-acetyl-L-leucyl-L-leucyl-L-argininal] yielded an inhibition at 20 µM (read-out: Inhibition (%)^c) of 100%.
For NCCc1ccc(S(=O)(=O)F)cc1 [Pefabloc SC], the percent inhibition (1000 µM, 50 μM P-F-R-AMC, 0.1 M Tris-HCl pH 8.0, 37 °C, 10 min preincubation, covalent) was 100%.
